From patent US8580829B2 (Boehringer Ingelheim International GmbH, priority 2010, dated 2013)

How the values were obtained:
[1] = system: synthesis of LTB4 in human whole blood; test: human whole blood LTB4 production inhibition assay; format: cell-based; details: Homo sapiens, heparinized human whole blood, calcimycin 20 μM; read-out: hWB LTB4 IC50
Procedure, shortened: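 Heparinized human whole blood was preincubated with compound for 15 min at 37° C, then stimulated with calcimycin (20 μM final, in PBS pH 7.4) for a further 30 min at 37° C. Plasma LTB4 was quantified by antibody-based homogeneous time-resolved fluorescence.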

[2] = molecular target: T1, recombinant human FLAP protein (Homo sapiens, UniProt P20292); test: FLAP binding assay (Scintillation Proximity Assay, displacement of [125I]L-691,831); details: recombinant human FLAP membranes, [125I]L-691,831 probe; read-out: FLAP SPA IC50
T1 construct: made in house; host or cells: Sf9 insect cells (100,000 x g membrane fraction)
T1 sequence (P20292 1-161): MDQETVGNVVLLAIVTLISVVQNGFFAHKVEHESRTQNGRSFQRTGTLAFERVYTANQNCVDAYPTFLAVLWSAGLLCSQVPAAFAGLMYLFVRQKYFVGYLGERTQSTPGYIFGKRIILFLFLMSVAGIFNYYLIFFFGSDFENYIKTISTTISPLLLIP
Procedure, shortened: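 Membranes came from Sf9 insect cells expressing recombinant human FLAP, collected as the 100,000×g pellet in Tris pH 7.5/MgCl2/EDTA buffer. 5 μg membrane protein was coupled to WGA SPA beads for 1 h.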

IC50 [1]	IC50 [2]	SMILES
1000 nM	6.4 nM	CCn1nc(C)cc1-c1nc(C2(c3ccc(-c4cnc(N)nc4)cc3)CCC2)no1 [Example 162, 5-(4-{1-[5-(2-Ethyl-5-methyl-2H-pyrazol-3-yl)-1,2,4-oxadiazol-3-yl]-cyclobutyl}-phenyl)-pyrimidin-2-ylamine]
450 nM	4 nM	Cc1nocc1-c1nc(C2(c3ccc(-c4cnc(N)nc4)cc3)CCC2)no1 [Example 163, 5-(4-{1-[5-(3-Methyl-isoxazol-4-yl)-1,2,4-oxadiazol-3-yl]-cyclobutyl}-phenyl)-pyrimidin-2-ylamine]
570 nM	5.5 nM	Cc1noc(C)c1-c1nc(C2(c3ccc(-c4cnc(N)nc4)cc3)CCC2)no1 [Example 164, 5-(4-{1-[5-(3,5-Dimethyl-isoxazol-4-yl)-1,2,4-oxadiazol-3-yl]-cyclobutyl}-phenyl)-pyrimidin-2-ylamine]
450 nM	6 nM	Cc1ncc(-c2nc(C3(c4ccc(-c5cnc(N)nc5)cc4)CCC3)no2)cn1 [Example 165, 5-(4-{1-[5-(2-Methyl-pyrimidin-5-yl)-1,2,4-oxadiazol-3-yl]-cyclobutyl}-phenyl)-pyrimidin-2-ylamine]
660 nM	5.1 nM	Cc1ncccc1-c1nc(C2(c3ccc(-c4cnc(N)nc4)cc3)CCC2)no1 [Example 167, 5-(4-{1-[5-(2-Methyl-pyridin-3-yl)-1,2,4-oxadiazol-3-yl]-cyclobutyl}-phenyl)-pyrimidin-2-ylamine]
230 nM	5.5 nM	COc1ccncc1-c1nc(C2(c3ccc(-c4cnc(N)nc4)cc3)CCC2)no1 [Example 168, 5-(4-{1-[5-(4-Methoxy-pyridin-3-yl)-1,2,4-oxadiazol-3-yl]-cyclobutyl}-phenyl)-pyrimidin-2-ylamine]
130 nM	2.1 nM	Nc1ncc(-c2ccc(C3(c4noc(-c5cccnc5Cl)n4)CCC3)cc2)cn1 [Example 169, 5-(4-{1-[5-(2-Chloro-pyridin-3-yl)-1,2,4-oxadiazol-3-yl]-cyclobutyl}-phenyl)-pyrimidin-2-ylamine]
390 nM	2.9 nM	COC(=O)c1ccc(-c2nc(C3(c4ccc(-c5cnc(N)nc5)cc4)CCC3)no2)cn1 [Example 170, 5-(3-{1-[4-(2-Amino-pyrimidin-5-yl)-phenyl]-cyclobutyl}-1,2,4-oxadiazol-5-yl)-pyridine-2-carboxylic acid methyl ester]
820 nM	14 nM	Nc1ncc(-c2ccc(C3(c4noc(-c5ccncn5)n4)CCC3)cc2)cn1 [Example 171, 5-{4-[1-(5-Pyrimidin-4-yl-1,2,4-oxadiazol-3-yl)-cyclobutyl]-phenyl}-pyrimidin-2-ylamine]
260 nM	4.3 nM	CC(C)(O)c1ccc(-c2nc(C3(c4ccc(-c5cnc(N)nc5)cc4)CCC3)no2)cn1 [Example 172]
> 5000 nM	2.9 nM	Nc1ncc(-c2ccc(C3(c4noc(-c5ccc[nH]c5=O)n4)CCC3)cc2)cn1 [Example 173, 3-(3-{1-[4-(2-amino-pyrimidin-5-yl)-phenyl]-cyclobutyl}-1,2,4-oxadiazol-5-yl)-1H-pyridin-2-one]
510 nM	5.3 nM	COc1cc(-c2nc(C3(c4ccc(-c5cnc(N)nc5)cc4)CCC3)no2)ccn1 [Example 174, 5-(4-{1-[5-(2-Methoxy-pyridin-4-yl)-1,2,4-oxadiazol-3-yl]-cyclobutyl}-phenyl)-pyrimidin-2-ylamine]
110 nM	2.3 nM	Nc1ncc(-c2ccc(C3(c4noc(-c5cn[nH]c5)n4)CCC3)cc2)cn1 [Example 175, 5-(4-{1-[5-(1H-Pyrazol-4-yl)-1,2,4-oxadiazol-3-yl]-cyclobutyl}-phenyl)-pyrimidin-2-ylamine]
410 nM	5.6 nM	Cn1cncc1-c1nc(C2(c3ccc(-c4cnc(N)nc4)cc3)CCC2)no1 [Example 176, 5-(4-{1-[5-(3-Methyl-3H-imidazol-4-yl)-1,2,4-oxadiazol-3-yl]-cyclobutyl}-phenyl)-pyrimidin-2-ylamine]
1300 nM	98 nM	NC(=O)c1nc(C2(c3ccc(-c4cnc(N)nc4)cc3)CCC2)no1 [Example 177, 3-{1-[4-(2-Amino-pyrimidin-5-yl)-phenyl]-cyclobutyl}-1,2,4-oxadiazole-5-carboxylic acid amide]

Second part, the compound before the results:

SMILES	IC50 [1]	IC50 [2]
Nc1ncc(-c2ccc(C3(c4noc(COCc5ccccc5)n4)CCOCC3)cc2)cn1 [Example 151, 5-{4-[4-(5-Benzyloxymethyl-1,2,4-oxadiazol-3-yl)-tetrahydro-pyran-4-yl]-phenyl}-pyrimidin-2-ylamine]	> 5000 nM	210 nM
Cc1ccc(-c2nc(C3(c4ccc(-c5cnc(N)nc5)cc4)CCC3)no2)cn1 [Example 152, 5-(4-{1-[5-(6-Methyl-pyridin-3-yl)-1,2,4-oxadiazol-3-yl]-cyclobutyl}-phenyl)-pyrimidin-2-ylamine]	210 nM	3.5 nM
Nc1ncc(-c2ccc(C3(c4noc(-c5c[nH]cn5)n4)CCC3)cc2)cn1 [Example 153, 5-(4-{1-[5-(1H-Imidazol-4-yl)-1,2,4-oxadiazol-3-yl]-cyclobutyl}-phenyl)-pyrimidin-2-ylamine]	270 nM	2.5 nM
Cc1ccc(-c2nc(C3(c4ccc(-c5cnc(N)nc5)cc4)CCCCC3)no2)cn1 [Example 154, 5-(4-{1-[5-(6-Methyl-pyridin-3-yl)-1,2,4-oxadiazol-3-yl]-cyclohexyl}-phenyl)-pyrimidin-2-ylamine]	810 nM	1.7 nM
Cc1ccc(-c2nc(C3(c4ccc(-c5cnc(N)nc5)cc4)CCCC3)no2)cn1 [Example 155, 5-(4-{1-[5-(6-Methyl-pyridin-3-yl)-1,2,4-oxadiazol-3-yl]-cyclopentyl}-phenyl)-pyrimidin-2-ylamine]	400 nM	2.8 nM
Nc1ncc(-c2ccc(C3(c4noc(-c5nc[nH]n5)n4)CCC3)cc2)cn1 [Example 156, 5-(4-{1-[5-(2H-1,2,4-Triazol-3-yl)-1,2,4-oxadiazol-3-yl]-cyclobutyl}-phenyl)-pyrimidin-2-ylamine]	> 5000 nM	13 nM
Cc1cc(-c2nc(C3(c4ccc(-c5cnc(N)nc5)cc4)CCC3)no2)on1 [Example 157]	690 nM	4.1 nM
Nc1ncc(-c2ccc(C3(c4noc(-c5cnccn5)n4)CCC3)cc2)cn1 [Example 158, 5-{4-[1-(5-Pyrazin-2-yl-1,2,4-oxadiazol-3-yl)-cyclobutyl]-phenyl}-pyrimidin-2-ylamine]	360 nM	5.7 nM
Nc1ncc(-c2ccc(C3(c4noc(-c5cncnc5)n4)CCC3)cc2)cn1 [Example 159, 5-{4-[1-(5-Pyrimidin-5-yl-1,2,4-oxadiazol-3-yl)-cyclobutyl]-phenyl}-pyrimidin-2-ylamine]	340 nM	6 nM
Nc1ncc(-c2ccc(C3(c4noc(-c5ccnnc5)n4)CCC3)cc2)cn1 [Example 160, 5-{4-[1-(5-Pyridazin-4-yl-1,2,4-oxadiazol-3-yl)-cyclobutyl]-phenyl}-pyrimidin-2-ylamine]	240 nM	6.2 nM
Cc1cc(-c2nc(C3(c4ccc(-c5cnc(N)nc5)cc4)CCC3)no2)n(C)n1 [Example 161, 5-(4-{1-[5-(2,5-Dimethyl-2H-pyrazol-3-yl)-1,2,4-oxadiazol-3-yl]-cyclobutyl}-phenyl)-pyrimidin-2-ylamine]	860 nM	6.6 nM
